Experimental data taken from PMC5218480 (PLoS ONE, 2017).

Tested on: MV-4-11 cells
Experiment: Gene expression microarray analysis (Affymetrix PrimeView) and GSEA
Type: cell-based, human
Parameters: RFU PODN (11730768_x_at) / Fold change /veh PODN (11730768_x_at) / RFU LINC00158 (11744669_a_at) / Fold change /veh LINC00158 (11744669_a_at) / RFU DUSP10 (11751237_a_at) / Fold change /veh DUSP10 (11751237_a_at) / RFU ID3 (11757404_x_at) / Fold change /veh ID3 (11757404_x_at) / RFU PLEKHG5 (11737974_s_at) / Fold change /veh PLEKHG5 (11737974_s_at) / RFU LRRC4B (11730491_at) / Fold change /veh LRRC4B (11730491_at) / RFU GIMAP4 (11747438_a_at) / Fold change /veh GIMAP4 (11747438_a_at) / RFU KRT8 (11758183_x_at) / Fold change /veh KRT8 (11758183_x_at) / RFU CNN1 (11734310_a_at) / Fold change /veh CNN1 (11734310_a_at) / RFU VPS37D (11726825_at) / Fold change /veh VPS37D (11726825_at) / RFU C10orf10 (11716522_x_at) / Fold change /veh C10orf10 (11716522_x_at) / RFU KIR2DL2 /// KIR2DL4 /// KIR2DL5A /// KIR2DL5B /// KIR2DS1 /// KIR2DS2 /// KIR2DS3 /// KIR2DS4 /// KIR3DL3 /// KIR3DL3 /// KIR3DS1 (11738374_at) / Fold change /veh KIR2DL2 /// KIR2DL4 /// KIR2DL5A /// KIR2DL5B /// KIR2DS1 /// KIR2DS2 /// KIR2DS3 /// KIR2DS4 /// KIR3DL3 /// KIR3DL3 /// KIR3DS1 (11738374_at) / RFU C1QL1 (11718748_at) / Fold change /veh C1QL1 (11718748_at) / RFU TMPRSS4 (11747572_a_at) / Fold change /veh TMPRSS4 (11747572_a_at) / RFU HAMP (11756126_x_at) / Fold change /veh HAMP (11756126_x_at) / RFU RNFT2 (11725882_a_at) / Fold change /veh RNFT2 (11725882_a_at) / RFU NR4A2 (11747474_a_at) / Fold change /veh NR4A2 (11747474_a_at) / RFU ABCC12 (11746883_a_at) / Fold change /veh ABCC12 (11746883_a_at) / RFU TMEM136 (11760407_x_at) / Fold change /veh TMEM136 (11760407_x_at) / RFU CLDN22 /// WWC2 (11732394_at) / Fold change /veh CLDN22 /// WWC2 (11732394_at) / RFU HLA-DPB1 (11760878_x_at) / Fold change /veh HLA-DPB1 (11760878_x_at) / RFU SPINT1 (11716480_a_at) / Fold change /veh SPINT1 (11716480_a_at) / RFU GAP43 (11754022_s_at) / Fold change /veh GAP43 (11754022_s_at) / RFU A4GNT (11735810_at) / Fold change /veh A4GNT (11735810_at) / RFU PRB3 (11715151_x_at) / Fold change /veh PRB3 (11715151_x_at) / RFU TUBB4B (11761932_at) / Fold change /veh TUBB4B (11761932_at) / RFU CAPN14 (11732068_a_at) / Fold change /veh CAPN14 (11732068_a_at) / RFU TMCC2 (11721928_a_at) / Fold change /veh TMCC2 (11721928_a_at) / RFU IRGQ (11745062_a_at) / Fold change /veh IRGQ (11745062_a_at) / RFU FAM174B (11720279_a_at) / Fold change /veh FAM174B (11720279_a_at) / RFU TMPRSS4 (11748680_a_at) / Fold change /veh TMPRSS4 (11748680_a_at) / RFU FAM212B (11763350_a_at) / Fold change /veh FAM212B (11763350_a_at) / RFU PLEKHG5 (11743358_a_at) / Fold change /veh PLEKHG5 (11743358_a_at) / RFU ZSCAN30 (11745921_a_at) / Fold change /veh ZSCAN30 (11745921_a_at) / RFU CMKLR1 (11741424_a_at) / Fold change /veh CMKLR1 (11741424_a_at) / RFU LOC101060620 /// MAPK8IP1 (11723275_at) / Fold change /veh LOC101060620 /// MAPK8IP1 (11723275_at) / RFU SPTSSB (11747773_x_at) / Fold change /veh SPTSSB (11747773_x_at) / RFU PRSS12 (11739890_at) / Fold change /veh PRSS12 (11739890_at) / RFU BIN1 (11741810_x_at) / Fold change /veh BIN1 (11741810_x_at) / RFU WNT11 (11732464_a_at) / Fold change /veh WNT11 (11732464_a_at) / RFU C10orf10 (11716521_a_at) / Fold change /veh C10orf10 (11716521_a_at) / RFU C5orf56 (11738089_at) / Fold change /veh C5orf56 (11738089_at) / RFU CYB561 (11721691_x_at) / Fold change /veh CYB561 (11721691_x_at) / RFU ANKRD19P (11752326_a_at) / Fold change /veh ANKRD19P (11752326_a_at) / RFU OR2T12 /// OR2T33 /// OR2T8 (11738714_s_at) / Fold change /veh OR2T12 /// OR2T33 /// OR2T8 (11738714_s_at) / RFU VCAN (11748164_a_at) / Fold change /veh VCAN (11748164_a_at) / RFU JSRP1 (11732532_at) / Fold change /veh JSRP1 (11732532_at) / RFU KRTAP10-11 (11738290_x_at) / Fold change /veh KRTAP10-11 (11738290_x_at) / RFU MYO3A (11730013_a_at) / Fold change /veh MYO3A (11730013_a_at) / RFU EBF3 (11725865_a_at) / Fold change /veh EBF3 (11725865_a_at) / RFU CAMK2N1 (11719241_x_at) / Fold change /veh CAMK2N1 (11719241_x_at) / RFU C5orf56 (11738088_a_at) / Fold change /veh C5orf56 (11738088_a_at) / RFU OLFML3 (11715873_a_at) / Fold change /veh OLFML3 (11715873_a_at) / RFU LOC100653217 /// NTM (11731650_a_at) / Fold change /veh LOC100653217 /// NTM (11731650_a_at) / RFU MAPK11 (11762145_a_at) / Fold change /veh MAPK11 (11762145_a_at) / RFU FIZ1 (11724087_x_at) / Fold change /veh FIZ1 (11724087_x_at) / RFU OASL (11726364_x_at) / Fold change /veh OASL (11726364_x_at) / RFU SOX15 (11748057_x_at) / Fold change /veh SOX15 (11748057_x_at) / RFU CD79A (11719716_a_at) / Fold change /veh CD79A (11719716_a_at) / RFU HIST1H1D (11736915_at) / Fold change /veh HIST1H1D (11736915_at) / RFU CASKIN2 (11723855_a_at) / Fold change /veh CASKIN2 (11723855_a_at) / RFU LOC730098 (11760151_x_at) / Fold change /veh LOC730098 (11760151_x_at) / RFU OR4N2 (11742367_at) / Fold change /veh OR4N2 (11742367_at) / RFU PRRT2 (11749266_a_at) / Fold change /veh PRRT2 (11749266_a_at) / RFU SNX32 (11753110_a_at) / Fold change /veh SNX32 (11753110_a_at) / RFU CDHR5 (11726645_a_at) / Fold change /veh CDHR5 (11726645_a_at) / RFU RCAN1 (11760418_a_at) / Fold change /veh RCAN1 (11760418_a_at) / RFU FAM167A (11723789_a_at) / Fold change /veh FAM167A (11723789_a_at) / RFU FAM26E (11764081_at) / Fold change /veh FAM26E (11764081_at) / RFU ISYNA1 (11749810_s_at) / Fold change /veh ISYNA1 (11749810_s_at) / RFU ACY1 (11761880_at) / Fold change /veh ACY1 (11761880_at) / RFU 11764098_at / Fold change /veh 11764098_at / RFU SAMD14 (11745864_x_at) / Fold change /veh SAMD14 (11745864_x_at) / RFU NPB (11741838_a_at) / Fold change /veh NPB (11741838_a_at) / RFU TMPRSS6 (11731388_a_at) / Fold change /veh TMPRSS6 (11731388_a_at) / RFU KRTAP10-2 (11738614_at) / Fold change /veh KRTAP10-2 (11738614_at) / RFU ARHGAP8 /// PRR5-ARHGAP8 (11727945_x_at) / Fold change /veh ARHGAP8 /// PRR5-ARHGAP8 (11727945_x_at) / RFU KRTAP5-7 /// NADSYN1 (11734609_at) / Fold change /veh KRTAP5-7 /// NADSYN1 (11734609_at) / RFU RASL12 (11751679_a_at) / Fold change /veh RASL12 (11751679_a_at) / RFU CDKN2B (11736163_a_at) / Fold change /veh CDKN2B (11736163_a_at) / RFU PRF1 (11729649_at) / Fold change /veh PRF1 (11729649_at) / RFU, ZNF638 /// ZNF638-IT1 / Fold change vs veh, ZNF638 /// ZNF638-IT1 / RFU, PANK3 / Fold change vs veh, PANK3 / RFU, SH3YL1 / Fold change vs veh, SH3YL1 / RFU, ZEB2 / Fold change vs veh, ZEB2 / RFU, NRIP1 / Fold change vs veh, NRIP1 / RFU, PTTG1IP / Fold change vs veh, PTTG1IP / RFU, CAPN2 / Fold change vs veh, CAPN2 / RFU, MED14 / Fold change vs veh, MED14 / RFU, SNORA58 / Fold change vs veh, SNORA58 / RFU, C1orf63 / Fold change vs veh, C1orf63 / RFU, LRRFIP1 / Fold change vs veh, LRRFIP1 / RFU, NDUFAF7 / Fold change vs veh, NDUFAF7 / RFU, SLC12A2 / Fold change vs veh, SLC12A2 / RFU, IBTK / Fold change vs veh, IBTK / RFU, ESF1 / Fold change vs veh, ESF1 / Fold change vs veh, TMEM50B / RFU, TAOK1 / Fold change vs veh, TAOK1 / RFU, ACBD3 / Fold change vs veh, ACBD3 / RFU, TMA16 / Fold change vs veh, TMA16 / RFU, RWDD3 / Fold change vs veh, RWDD3 / RFU, BCAT1 / Fold change vs veh, BCAT1 / RFU, EDEM3 / Fold change vs veh, EDEM3 / RFU, TMEM33 / Fold change vs veh, TMEM33 / RFU, WDR75 / Fold change vs veh, WDR75 / RFU, AHCTF1 / Fold change vs veh, AHCTF1 / RFU, TFRC / Fold change vs veh, TFRC / RFU, ZDHHC17 / Fold change vs veh, ZDHHC17 / RFU, NOM1 / Fold change vs veh, NOM1 / RFU, ARL8B / Fold change vs veh, ARL8B / RFU, ZBTB11 / Fold change vs veh, ZBTB11 / RFU, TAMM41 / Fold change vs veh, TAMM41 / RFU, KIAA1704 /// LOC100996395 / Fold change vs veh, KIAA1704 /// LOC100996395 / RFU, ING1 / Fold change vs veh, ING1 / RFU, TRMT61B / Fold change vs veh, TRMT61B / RFU, FUBP3 / Fold change vs veh, FUBP3 / RFU, TP53 / Fold change vs veh, TP53 / RFU, TNKS2 / Fold change vs veh, TNKS2 / RFU, ZFP14 / Fold change vs veh, ZFP14 / RFU, ACTR2 / Fold change vs veh, ACTR2 / RFU, PPP3R1 / Fold change vs veh, PPP3R1 / RFU, PIK3R1 / Fold change vs veh, PIK3R1 / RFU, HNRNPA1 / Fold change vs veh, HNRNPA1 / RFU, RNF170 / Fold change vs veh, RNF170 / RFU, ZNF28 / Fold change vs veh, ZNF28 / RFU, RNGTT / Fold change vs veh, RNGTT / RFU, OGT / Fold change vs veh, OGT / RFU, BRD1 / Fold change vs veh, BRD1 / RFU, MARS / Fold change vs veh, MARS / RFU, ZNF655 / Fold change vs veh, ZNF655 / RFU, FAHD1 / Fold change vs veh, FAHD1 / RFU, BDP1 / Fold change vs veh, BDP1 / RFU, LRRCC1 / Fold change vs veh, LRRCC1 / RFU, ARID1A / Fold change vs veh, ARID1A / RFU, ZNF146 / Fold change vs veh, ZNF146 / RFU, ZNF330 / Fold change vs veh, ZNF330 / RFU, GPN3 / Fold change vs veh, GPN3 / RFU, C9orf123 / Fold change vs veh, C9orf123 / RFU, N4BP2L2 / Fold change vs veh, N4BP2L2 / RFU, ARFIP1 / Fold change vs veh, ARFIP1 / RFU, FAM179B / Fold change vs veh, FAM179B / RFU, BCL10 / Fold change vs veh, BCL10 / RFU, UHRF1BP1L / Fold change vs veh, UHRF1BP1L / RFU, BET1 / Fold change vs veh, BET1 / RFU, CNOT2 / Fold change vs veh, CNOT2 / RFU, ZNF268 / Fold change vs veh, ZNF268 / Fold change vs veh, ZNF507 / RFU, DGCR2 / Fold change vs veh, DGCR2 / RFU, WDSUB1 / Fold change vs veh, WDSUB1 / Fold change vs veh, HSP90B1 /// MIR3652 / RFU, ADSS / Fold change vs veh, ADSS / RFU, GK / Fold change vs veh, GK / RFU, ZNF148 / Fold change vs veh, ZNF148 / RFU, TAF9 / Fold change vs veh, TAF9 / RFU, SLC1A5 / Fold change vs veh, SLC1A5 / RFU, SLMO2 / Fold change vs veh, SLMO2 / RFU, ABCC4 / Fold change vs veh, ABCC4 / RFU, LOC101060439 /// RAP1B / Fold change vs veh, LOC101060439 /// RAP1B / RFU, RFX7 / Fold change vs veh, RFX7 / RFU, GTPBP10 / Fold change vs veh, GTPBP10 / RFU, CNEP1R1 / Fold change vs veh, CNEP1R1 / RFU, BIVM-ERCC5 /// ERCC5 / Fold change vs veh, BIVM-ERCC5 /// ERCC5 / RFU, ILF3 / Fold change vs veh, ILF3 / RFU 11762660_at / Fold change /veh 11762660_at / RFU VCAN (11757783_s_at) / Fold change /veh VCAN (11757783_s_at) / RFU DDX43 (11728927_at) / Fold change /veh DDX43 (11728927_at) / RFU KRT8 (11758188_x_at) / Fold change /veh KRT8 (11758188_x_at) / RFU NKD1 (11759106_at) / Fold change /veh NKD1 (11759106_at) / RFU SRD5A1 (11742802_a_at) / Fold change /veh SRD5A1 (11742802_a_at) / RFU TPSAB1 /// TPSB2 (11721975_s_at) / Fold change /veh TPSAB1 /// TPSB2 (11721975_s_at) / RFU GSTM3 (11746129_a_at) / Fold change /veh GSTM3 (11746129_a_at) / RFU IL23R (11737362_x_at) / Fold change /veh IL23R (11737362_x_at) / RFU TMEM51 (11727254_a_at) / Fold change /veh TMEM51 (11727254_a_at) / RFU PIWIL2 (11732686_x_at) / Fold change /veh PIWIL2 (11732686_x_at) / RFU ORM1 (11744905_x_at) / Fold change /veh ORM1 (11744905_x_at) / RFU CCDC152 (11743942_at) / Fold change /veh CCDC152 (11743942_at) / RFU ECM1 (11717891_a_at) / Fold change /veh ECM1 (11717891_a_at) / RFU IL23R (11748794_a_at) / Fold change /veh IL23R (11748794_a_at) / RFU TNFAIP8L3 (11732012_x_at) / Fold change /veh TNFAIP8L3 (11732012_x_at) / RFU MBOAT4 (11741988_at) / Fold change /veh MBOAT4 (11741988_at) / RFU 11764193_at / Fold change /veh 11764193_at / RFU TMEM53 (11763286_at) / Fold change /veh TMEM53 (11763286_at) / RFU MAGEB2 (11727129_at) / Fold change /veh MAGEB2 (11727129_at) / RFU TMEM200A (11744735_a_at) / Fold change /veh TMEM200A (11744735_a_at) / RFU CCDC152 (11751479_a_at) / Fold change /veh CCDC152 (11751479_a_at) / RFU FAM211A (11726209_a_at) / Fold change /veh FAM211A (11726209_a_at) / RFU RGS16 (11746705_a_at) / Fold change /veh RGS16 (11746705_a_at) / RFU VCAN (11755009_s_at) / Fold change /veh VCAN (11755009_s_at) / RFU RHOB (11743442_s_at) / Fold change /veh RHOB (11743442_s_at) / RFU RGS16 (11720943_a_at) / Fold change /veh RGS16 (11720943_a_at) / RFU RGS16 (11720944_at) / Fold change /veh RGS16 (11720944_at) / RFU, VPS4B / Fold change vs veh, VPS4B / RFU, CREB1 / Fold change vs veh, CREB1 / RFU, DNAJC13 / Fold change vs veh, DNAJC13 / RFU, GNAQ / Fold change vs veh, GNAQ / RFU, CDK5R1 / Fold change vs veh, CDK5R1 / RFU, ZRANB3 / Fold change vs veh, ZRANB3 / RFU, CUL4A / Fold change vs veh, CUL4A / RFU, CCNY / Fold change vs veh, CCNY / RFU, UFL1 / Fold change vs veh, UFL1 / RFU, COG3 / Fold change vs veh, COG3 / RFU, DIAPH2 / Fold change vs veh, DIAPH2 / RFU, SKA2 / Fold change vs veh, SKA2 / RFU, AFF3 / Fold change vs veh, AFF3 / RFU, LMF1 / Fold change vs veh, LMF1 / RFU, IPO11 / Fold change vs veh, IPO11 / RFU, DFFB / Fold change vs veh, DFFB / RFU, FOXP1 / Fold change vs veh, FOXP1 / RFU, CARD8 / Fold change vs veh, CARD8 / RFU, STRN3 / Fold change vs veh, STRN3 / RFU, ADK / Fold change vs veh, ADK / RFU, RASSF2 / Fold change vs veh, RASSF2 / RFU, WIPF1 / Fold change vs veh, WIPF1 / RFU, LARP1B / Fold change vs veh, LARP1B / RFU, RASA1 / Fold change vs veh, RASA1 / RFU, RB1 / Fold change vs veh, RB1 / RFU, PPFIA1 / Fold change vs veh, PPFIA1 / RFU, MAT2A / Fold change vs veh, MAT2A / RFU, CCT5 / Fold change vs veh, CCT5 / RFU, WDR92 / Fold change vs veh, WDR92 / RFU, CUX1 / Fold change vs veh, CUX1 / RFU, TTC7A / Fold change vs veh, TTC7A / RFU, TMEM135 / Fold change vs veh, TMEM135 / RFU, DEPTOR / Fold change vs veh, DEPTOR / RFU, CPM / Fold change vs veh, CPM / RFU, DNAJB6 / Fold change vs veh, DNAJB6 / RFU, CACNA2D3 / Fold change vs veh, CACNA2D3 / RFU, DTX4 / Fold change vs veh, DTX4 / RFU, TFCP2 / Fold change vs veh, TFCP2 / RFU, GMCL1 /// GMCL1P1 / Fold change vs veh, GMCL1 /// GMCL1P1 / RFU, AEBP2 / Fold change vs veh, AEBP2 / RFU, SNHG1 /// SNORD22 /// SNORD25 /// SNORD26 /// SNORD27 /// SNORD28 /// SNORD29 /// SNORD31 / Fold change vs veh, SNHG1 /// SNORD22 /// SNORD25 /// SNORD26 /// SNORD27 /// SNORD28 /// SNORD29 /// SNORD31 / Fold change (Aza/veh), C12orf56 (ProbeSet 11735607_a_at) / Fold change (ACY-1035/veh), C12orf56 (ProbeSet 11735607_a_at) / Fold change (Aza/veh), FGFR1OP (ProbeSet 11751329_s_at) / Fold change (ACY-1035/veh), FGFR1OP (ProbeSet 11751329_s_at) / Fold change (Aza/veh), VPS36 (ProbeSet 11739960_a_at) / Fold change (ACY-1035/veh), VPS36 (ProbeSet 11739960_a_at) / RFU SYPL1 (11715823_x_at) / Fold change /veh SYPL1 (11715823_x_at) / RFU IGFBP7 (11715501_s_at) / Fold change /veh IGFBP7 (11715501_s_at) / RFU REEP3 (11722064_at) / Fold change /veh REEP3 (11722064_at) / RFU IGLL1 (11728026_x_at) / Fold change /veh IGLL1 (11728026_x_at): dose or concentration left out as unconfirmed
Conditions: ProbeSet 11732370_a_at; LIST D

Nc1ncn([C@@H]2O[C@H](CO)[C@@H](O)[C@H]2O)c(=O)n1 [azacitidine]
Fold change vs veh, CUX1: 0.72
